Laboratory results published in patent US11299515B2, “Optimized peptides for targeting human nerves and their use in image guided surgery, diagnostics and therapeutic” (The Regents of the University of California, priority 2017, dated 2022).
“Also recorded” adds a separate entry of the source. Residues, ends and D or L forms follow the SMILES beside them. *: point of attachment. Fluorescein(5-Mal) = O=C1OC2(c3ccc(O)cc3Oc3cc(O)ccc32)c2ccc(N3C(=O)CC(*)C3=O)cc21

How the values were obtained:
sciatic nerve = format: in vivo, mice; conditions: 450 nmols i.v., SKH1 mice
Description: Either 150 or 450 nmoles of fluorescein labeled synthetic peptides were injected intravenously into mice. After a 2 hour waiting period for washout of nonspecific binding, mice were anesthetized and skin incisions were made over the dorsal surface of the hind legs to expose the sciatic nerve. Brightfield and fluorescent images were obtained with a dissecting microscope using Metamorph software (FIG. 1). Quantitation of fluorescence of nerves and adjacent non-nerve tissue was performed with Image J (FIG. 2). Peptides were also topically applied to human nerve sections. Nerves were freshly frozen in OTC prior to sectioning. Peptides were topically applied at concentration at 300 uM with images being shown for HNP401, HNP402, HNP404 and previous reported nerve binding peptides NP41 (FIG. 3)). Also shown are images for variants HNP301 ([…]) and NP124. NP713 was also tested and has not reported in a publication. NP713, is a derivative of NP41 with sequence […] that was enriched after 7 rounds of selection against mouse tissue, and was also found after 4 rounds of selection against human tissue. […] All D-amino acid controls for NP-41 and NP713 and non peptide conjugated carboxyfluorescein, are also shown. […] HNP401 was then tested for labeling of rat sciatic and rat prostate cavernosal nerve in-vivo. […] FIGS. 6 and 7 show in-vivo labeling of rat prostate cavernosal nerve with comparison to white light visualization.
Following anesthesia with intra-peritoneal injection of ketamine (80 mg/kg) and midazolam (40 mg/kg), FAM-NP41 or its variants were administered into mice retro-orbitally. After a washout period of 2-4 hours, the animals were anesthetized with ketamine (50 mg/ml) and xylazine (20 mg/ml). The bladder and prostate were exposed through a midline abdominal incision. The autonomic nerve along the cavernosal vessel in the prostate was imaged and recorded using a custom-made surgical imaging system. This system is a modified from Olympus MVX10 scope capable of hi-resolution fluorescence, RGB reflectance and realtime overlay with zoom from 0.6 to 5.7 cm field of view. Image) was used for quantitative analysis of nerve contrast for each peptide dye conjugate tested. Images of autonomic nerve in prostate were selected from the recorded files and magnified 300-400% prior to selection of ROI and measurement. Nerves and adjacent non-nerve tissues ROIs were hand-selected using polygonal selection tool at the same location from both of reflectance and fluorescence images. The mean and standard deviation of the pixel intensities within the selected areas were compared for nerves (mean=In, SD=σn) and adjacent background tissue (mean=Ib, SD=σb). Nerve to non-nerve contrast was calculated after background subtraction with formula |In−Ib|/(σn^2+σm^2)^0.5. For imaging the nerves in the prostate gland of male rats peptide dye conjugate were injected retro-orbitally. FAM-HNP401 was injected at a concentration of 13 mgs/kg followed by imaging after 15 minutes or alternatively a dose of 52 mgs/kg was used with imaging after 3 hours. Live animal surgery was performed under a ketamine-xylazine cocktail according to IACUC protocol. Sterile technique was used to expose the prostate; bladder was drained with a small syringe and sutured. The surgical field was washed with sterile saline prior to imaging. Mann-Whitney test was used to analyze data for both mice and rats to compare nerve intensity and nerve to non-nerve contrast between white light reflectance and fluorescence.

human sural nerve = experiment: Topical application of FAM-labelled peptides on human nerve sections; format: binding
Source text: To determine the affinity of phage selected peptides for binding to human nerve they were chemically synthesized by solid-phase synthesis and labeled with fluorescein at the C-terminus via a GGC linker. Peptides were topically applied to sectioned human sural nerve and human temporalis muscle to determine nerve to muscle contrast. […] To confirm binding and contrast of HNP401 for additional nerve types binding was compared in nerve and muscle with both HNP401 and NP41 on facial brachial plexus nerve (FIG. 9). […] FAM-HNP401 was additionally tested topically on ex-vivo tissue for labeling of mouse facial nerve with surrounding muscle (FIG. 10, J-M).
To test the affinity of selected phage display peptides for binding to human nerves, they were chemically synthesized by solid-phase synthesis and labeled with fluorescein at the C-terminus. Peptides were topically applied to sections of surgically harvested human sural nerve and temporalis muscle to determine nerve to muscle contrast for selected peptides and controls (FIG. 23). […] To quantify differential binding to nerve versus muscle, fluorescence signal intensity was measured for ROIs from the perineurium of select nerves and human temporalis muscle.
Human sural nerve, antebrachial nerve and laryngeal nerve and temporalis muscle were obtained under IRB protocol number 130837 for Dr. Quyen Nguyen. Human peripheral nerves (typically sural) were obtained from patients undergoing nerve resection procedures. Human nerves from prostate gland of two patients were acquired under Moores Cancer Centre Biorepository IRB protocol number 090401. Tissue were sectioned and mounted on glass slides or Cryojane tape. Tissue sections were placed in a humidifier chamber for 30 min before application of the peptide solution. Peptides were diluted to appropriate concentration in 0.5×HBSS prior to topical application. 50 μl of peptide solution of with known concentration (1 μM to 375 μM) were applied to 10 μm nerve sections on tape or slides and incubated for 30 minutes in a humidifier chamber. After incubation with peptide nerve sections were washed with twice with 0.5×HBSS and once with 1×PBS. A cover-slip was applied and slides were imaged immediately on either a Zeiss Lumar dissecting scope of Nikon A1 confocal microscope. For confocal imaging tissue sections of 10 μm thickness were imaged with 488 nm laser excitation 515 (25) and a 10× air objective and a […] size. For immunohistochemistry the confocal Images were acquired with a 20× air objective at 0.4 μm/pixel.
Image J was used to analyze and compare images acquired using the confocal microscope and the Lumar dissecting scope. For each experimental set where probes were compared, we kept the acquisition parameters identical so as to directly compare the data obtained. […] All raw image files for a given experimental cohort were loaded at the same time into Image J as 16-bit tiff images. We then levelled the image for tissue treated with FAM-HNP401. Once these levels were set, the settings are propagated to all images in one step using Image J. The brightest image is set as the benchmark for all other images in the cohort to avoid saturating when the leveling is propagated.

in vivo = conditions: male, SKH, mouse, whole blood, iv, 100 nmol
Description: Five 8-week-old SKH male mice were injected intravenously with 100 nmol [10.75 mg/kg for 25 gm mouse] of FAM-HNP401 in 100 μl of sterile water. Prior to blood draw mice were anesthetized with a 1:1 cocktail of ketamine: midazolam. Tail pricks were performed at 1 min, 10 min, 20 min, 30 min, 1 hr, and 2 hrs after injection to collect 5 μl whole blood which was dissolved in 100 μl Agilent ICP-MS tuning buffer. Samples were centrifuged and equal volume of supernatants were analyzed using a Tecan fluorescence plate reader.

mouse facial nerve = experiment: Topical application on ex-vivo mouse facial nerve with surrounding muscle; format: binding; conditions: 375 and 100 μM topical
[1] = Mass spectroscopy analysis of urine after injection of nerve binding peptides

CC(=O)N[C@@H](CO)C(=O)NCC(=O)N[C@@H](CCC(N)=O)C(=O)N[C@H](C(=O)N1CCC[C@H]1C(=O)N[C@@H](Cc1c[nH]c2ccccc12)C(=O)N[C@@H](CCC(=O)O)C(=O)N[C@@H](CCC(=O)O)C(=O)N1CCC[C@H]1C(=O)N[C@@H](Cc1ccc(O)cc1)C(=O)N[C@@H](Cc1ccc(O)cc1)C(=O)N[C@H](C(=O)N[C@H](C(=O)N[C@@H](CCCCN)C(=O)N[C@@H](CCCCN)C(=O)N[C@@H](CO)C(=O)N[C@@H](CO)C(=O)NCC(=O)NCC(=O)N[C@@H](CSC1CC(=O)N(c2ccc3c(c2)C(=O)OC32c3ccc(O)cc3Oc3cc(O)ccc32)C1=O)C(N)=O)C(C)C)C(C)C)C(C)C (some centres unmarked) [FAM-HNP401] (Ac-SGQVPWEEPYYVVKKSSGGC(Fluorescein(5-Mal))-NH2; N-terminus and C-terminus assumed)
signal intensity for in-vivo binding to mouse sciatic nerve compared to FAM-NP41 (sciatic nerve): 2.3 × | sciatic nerve fluorescent intensity compared to NP41 (sciatic nerve; 2 h post injection): 2.3 fold | nerve to surrounding muscle contrast (sciatic nerve; mouse thigh): 5.79±0.81 | fluorescent signal intensity compared to FAM-NP41 (human sural nerve; 100 μM topical, human sural nerve): 10.9 × | fluorescent signal intensity (ROIs of perineurium) (human sural nerve; 100 μM topical, n=4): 1374.44±425.96 | binding / contrast among peptides and controls screened on human nerve (human sural nerve; 100 μM topical, sural nerve and temporalis muscle): highest contrast | Nerve to muscle contrast (human sural nerve; human sural nerve vs human temporalis muscle, 100 μM topical, n=4): 3.03±0.57 | signal for binding human nerve compared to FAM-NP41 (human sural nerve; topical, human nerve): 10 fold | half-life (in vivo): 30 min | labeling of mouse facial nerve versus surrounding muscle (mouse facial nerve): poor contrast; also recorded: did not perform as well as FAM-NP41 | metabolism (species detected in urine) [1]: partially metabolized
